Test system: MDA-MB-231, MCF7, MCF-10A
Test: Cytotoxicity relative to ipomoeassin F across the cell lines of Table 1
Type: cell-based, human
Settings: depending on the cell type (Table 1)
Protocol: Two human breast cancer cell lines (MDA-MB-231 and MCF7) and one human breast non-tumorigenic epithelial cell line (MCF-10A) were maintained in a DMEM high glucose culture medium supplemented with 10% fetal bovine serum (FBS) and 2 mM L-glutamine. The cells were grown in a humidified atmosphere of 5% CO2 and 95% air at 37 °C . The culture medi um w as changed every 2–4 days depending on cell density. Cell cultures were passaged once a week using 0.125% trypsin-EDTA to detach the cells from culture flasks/dishes.
The human colorectal cancer cell line HCT116 was maintained in McCoy’s 5A (modified) medium supplemented with 10% fetal bovine serum (FBS). […]
Viable cells were counted with a hemocytometer immediately before each experiment. […] Absorbance of formazan was detected by a microplate reader (BioTek Synergy H1) at 570 nm with 650 nm as the reference wavelength. The percentage of viability compared to the negative control (DMSO-treated cells) was determined . […]
MDA-MB-231, MCF-10A and HCT116. Viable cells were counted with a hemocytometer immediately before each experiment . […] Emission of each well at 620 nm was detected by a microplate reader (BioTek Synergy H1) at excitation 580 nm. […] Cells were treated for 96 h, then viability measured with AlamarBlue, detected using the conditions described but with a BMG Fluostar Optima Microplate Reader. […]

C/C=C(\C)C(=O)O[C@H]1[C@H](OC(=O)/C=C/c2ccc(OCc3cn(CCOCCOCCOCCNC(=O)CCCC[C@@H]4SC[C@@H]5NC(=O)N[C@@H]54)nn3)cc2)[C@@H](O)[C@@H]2O[C@H]3[C@H](O[C@@H](CCCCC)CCCCCCC(=O)CCC(=O)OC[C@H]1O2)O[C@H](C)[C@H](OC(C)=O)[C@@H]3O [compound 5]
decrease in potency versus ipomoeassin F: ~5 fold

— article PMC6627486, “Ipomoeassin F Binds Sec61α to Inhibit Protein Translocation” (Journal of the American Chemical Society, 2019)
